Measurements from the supplement of paper PMC10883282.

What was measured:
Assay in all cases: relative viability vs DMSO control (72 h) (fraction); higher = more viable cells
G401 = tested on: G401
Outline: (§1)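 Relative viability is percent growth read by ATPLite and averaged over up to triplicate wells. Sarcoma cells were seeded in 384-well plates to reach 80–90% confluence and given 2.5 µl of serially diluted compound after 24 h, from source plates of 10 mM to 0.0002 mM. Incubation lasted 72 h at 37 °C, 5% CO2, with 0.1% DMSO vehicle and a 5 µM positive control, and the data were rescaled so 1 equals full and 0 equals none.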

HT1080 = tested on: HT1080
Outline: as §1

KHOS-240S = tested on: KHOS-240S
Outline: as §1

MES-SA = tested on: MES-SA
Outline: as §1

RD-ES = tested on: RD-ES
Outline: as §1

RD = tested on: RD
Outline: as §1

SK-ES-1 = tested on: SK-ES-1
Outline: as §1

SK-LMS-1 = tested on: SK-LMS-1
Outline: as §1

SW1353 = tested on: SW1353
Outline: as §1

SW982 = tested on: SW982
Outline: as §1

SYO-1 = tested on: SYO-1
Outline: as §1

VA-ES-BJ = tested on: VA-ES-BJ
Outline: as §1

CC(=O)c1c(C)c2cnc(Nc3ccc(N4CCNCC4)cn3)nc2n(C2CCCC2)c1=O [Palbociclib]
Conditions	relative viability
G401, 0.00017 µM	1.04
G401, 0.00051 µM	1.03
G401, 0.00152 µM	1.016
G401, 0.00457 µM	0.989
G401, 0.01372 µM	0.962
G401, 0.04115 µM	0.938
G401, 0.1235 µM	0.882
G401, 0.3704 µM	0.856
G401, 1.111 µM	0.833
G401, 3.333 µM	0.742
G401, 10 µM	0.293
HT1080, 0.00017 µM	1.09
HT1080, 0.00051 µM	1.1
HT1080, 0.00152 µM	1.11
HT1080, 0.00457 µM	1.08
HT1080, 0.01372 µM	1.13
HT1080, 0.04115 µM	1.12
HT1080, 0.1235 µM	1.16
HT1080, 0.3704 µM	1.16
HT1080, 1.111 µM	1.06
HT1080, 3.333 µM	0.973
HT1080, 10 µM	0.44
KHOS-240S, 0.00017 µM	1.07
KHOS-240S, 0.00051 µM	1.07
KHOS-240S, 0.00152 µM	1.08
KHOS-240S, 0.00457 µM	1.07
KHOS-240S, 0.01372 µM	1.07
KHOS-240S, 0.04115 µM	1.01
KHOS-240S, 0.1235 µM	0.945
KHOS-240S, 0.3704 µM	0.843
KHOS-240S, 1.111 µM	0.734
KHOS-240S, 3.333 µM	0.681
KHOS-240S, 10 µM	0.607
MES-SA, 0.00017 µM	0.965
MES-SA, 0.00051 µM	0.977
MES-SA, 0.00152 µM	0.975
MES-SA, 0.00457 µM	0.936
MES-SA, 0.01372 µM	0.9398
MES-SA, 0.04115 µM	0.852
MES-SA, 0.1235 µM	0.782
MES-SA, 0.3704 µM	0.678
MES-SA, 1.111 µM	0.641
MES-SA, 3.333 µM	0.521
MES-SA, 10 µM	0.366
RD, 0.00017 µM	1.03
RD, 0.00051 µM	1.08
RD, 0.00152 µM	1.11
RD, 0.00457 µM	1.09
RD, 0.01372 µM	1.08
RD, 0.04115 µM	1.09
RD, 0.1235 µM	1.05
RD, 0.3704 µM	1.01
RD, 1.111 µM	0.968
RD, 3.333 µM	0.905
RD, 10 µM	0.276
RD-ES, 0.00017 µM	0.959
RD-ES, 0.00051 µM	0.9884
RD-ES, 0.00152 µM	0.98
RD-ES, 0.00457 µM	0.931
RD-ES, 0.01372 µM	0.917
RD-ES, 0.04115 µM	0.835
RD-ES, 0.1235 µM	0.735
RD-ES, 0.3704 µM	0.652
RD-ES, 1.111 µM	0.603
RD-ES, 3.333 µM	0.563
RD-ES, 10 µM	0.18
SK-ES-1, 0.00017 µM	1
SK-ES-1, 0.00051 µM	1.07
SK-ES-1, 0.00152 µM	1.03
SK-ES-1, 0.00457 µM	1.02
SK-ES-1, 0.01372 µM	0.9868
SK-ES-1, 0.04115 µM	0.865
SK-ES-1, 0.1235 µM	0.674
SK-ES-1, 0.3704 µM	0.512
SK-ES-1, 1.111 µM	0.467
SK-ES-1, 3.333 µM	0.407
SK-ES-1, 10 µM	0.241
SK-LMS-1, 0.00017 µM	1.05
SK-LMS-1, 0.00051 µM	1.04
SK-LMS-1, 0.00152 µM	1.08
SK-LMS-1, 0.00457 µM	1.05
SK-LMS-1, 0.01372 µM	1.06
SK-LMS-1, 0.04115 µM	0.97
SK-LMS-1, 0.1235 µM	0.998
SK-LMS-1, 0.3704 µM	0.961
SK-LMS-1, 1.111 µM	1
SK-LMS-1, 3.333 µM	1.06
SK-LMS-1, 10 µM	0.798
SW982, 0.00017 µM	1.03
SW982, 0.00051 µM	1.08
SW982, 0.00152 µM	1.06
SW982, 0.00457 µM	1.05
SW982, 0.01372 µM	1.01
SW982, 0.04115 µM	0.936
SW982, 0.1235 µM	0.845
SW982, 0.3704 µM	0.737
SW982, 1.111 µM	0.6424
SW982, 3.333 µM	0.487
SW982, 10 µM	0.222
SW1353, 0.00017 µM	1.05
SW1353, 0.00051 µM	1.06
SW1353, 0.00152 µM	1.05
SW1353, 0.00457 µM	1.04
SW1353, 0.01372 µM	1.01
SW1353, 0.04115 µM	0.955
SW1353, 0.1235 µM	0.9442
SW1353, 0.3704 µM	0.9
SW1353, 1.111 µM	0.859
SW1353, 3.333 µM	0.87
SW1353, 10 µM	0.425
SYO-1, 0.00017 µM	1.01
SYO-1, 0.00051 µM	1
SYO-1, 0.00152 µM	1.01
SYO-1, 0.00457 µM	0.9555
SYO-1, 0.01372 µM	0.903
SYO-1, 0.04115 µM	0.8
SYO-1, 0.1235 µM	0.702
SYO-1, 0.3704 µM	0.649
SYO-1, 1.111 µM	0.621
SYO-1, 3.333 µM	0.523
SYO-1, 10 µM	-0.000667
VA-ES-BJ, 0.00017 µM	1.1
VA-ES-BJ, 0.00051 µM	1.1
VA-ES-BJ, 0.00152 µM	1.081
VA-ES-BJ, 0.00457 µM	1.08
VA-ES-BJ, 0.01372 µM	0.99
VA-ES-BJ, 0.04115 µM	0.9367
VA-ES-BJ, 0.1235 µM	0.807
VA-ES-BJ, 0.3704 µM	0.666
VA-ES-BJ, 1.111 µM	0.584
VA-ES-BJ, 3.333 µM	0.547
VA-ES-BJ, 10 µM	0.499
